Blank lines part the entries; values can stand above or below the compound they belong to.
Legend:
[1] = hepatotoxicity of AChE inhibitors such as tacrine; cited from earlier work
[2] = test system: Alzheimer's disease patients; conditions: cited from earlier work
animal models = conditions: cited from earlier work
mAChR M4 = target: T1, mAChR M4 (Homo sapiens, UniProt P08173); test: mAChR M4 cell-based functional assay (calcium mobilization, potentiation of EC20 acetylcholine response)
T1 construct: expressed in transfected cells; host or cells: CHO-K1 cells stably transfected with M4 cDNA and chimeric G-protein Gqi5
T1 sequence (P08173 1-479): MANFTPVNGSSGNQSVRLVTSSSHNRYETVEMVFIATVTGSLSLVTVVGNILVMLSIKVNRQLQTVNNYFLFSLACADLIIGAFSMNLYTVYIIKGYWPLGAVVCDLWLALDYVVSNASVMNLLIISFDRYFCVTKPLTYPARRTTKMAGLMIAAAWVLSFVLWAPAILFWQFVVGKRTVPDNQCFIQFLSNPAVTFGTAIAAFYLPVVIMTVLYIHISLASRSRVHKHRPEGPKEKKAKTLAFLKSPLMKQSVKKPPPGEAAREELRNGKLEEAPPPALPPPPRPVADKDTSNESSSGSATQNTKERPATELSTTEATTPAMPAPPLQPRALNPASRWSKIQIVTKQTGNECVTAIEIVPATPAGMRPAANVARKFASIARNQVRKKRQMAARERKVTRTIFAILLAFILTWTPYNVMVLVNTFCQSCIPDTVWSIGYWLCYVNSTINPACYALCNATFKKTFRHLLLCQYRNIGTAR

Compound: Nc1c2c(nc3ccccc13)CCCC2 [tacrine]
elevated liver transaminases observed in patients [1]: about 30 % of patients

Compound: CCCCCCOc1nsnc1C1=CCCN(C)C1 [xanomeline]
psychotic behavioral symptoms such as delusions, suspiciousness, vocal outbursts, and hallucinations ([2]; Bodick 1997): reduce psychotic behavioral symptoms | treatment induced side effects [2]: gastrointestinal effects | catalepsy in animal models (animal models; in vivo): without causing catalepsy | activity in animal models with similar profiles to known antipsychotic drugs (animal models; muscarinic agonist, Bymaster 1998, 1999, Shannon 1999, 2000): active in animal models

Emax at 30 µM (mAChR M4; % ACh maximum at 30 μM): 82% | EC50 (mAChR M4; mAChR M4 cell-based functional assay, >10,000 estimated for low potency compounds without plateau, read-out: EC50): > 10 µM
Compound: Cc1nnc2sc(C(=O)NCc3cnccn3)c(N)c2c1C [Example B10]

From patent US9868746B2, “Substituted 5-aminothieno[2,3-C]pyridazine-6-carboxamide analogs as positive allosteric modulators of the muscarinic acetylcholine receptor M4” (Vanderbilt University, priority 2012, dated 2018)
